Experimental findings from patent US9334242B2, “Compounds for treatment of cancer” (GTX, INC., priority 2010, dated 2016) are described below.

The subject of data set [1] is WM-164. In words: Cytotoxicity / cell growth inhibition, SRB assay. It counts as cell-based. Particulars: Homo sapiens, WM164, Table 6A.
Data set [2] in a line: Aqueous solubility, Multiscreen Solubility Filter Plate, PBS pH 7.4, LC-MS/MS. It counts as physicochemical. Particulars: HCl salt of 2r.
The test system of data set [3] is melanoma (B16-F1, A375, WM-164) and prostate cancer (LNCaP, PC-3, DU 145, PPC-1) cell lines. The data set is described as follows: Cytotoxicity SRB assay, ranges or averages quoted over the melanoma and prostate cancer cell lines. In kind it is cell-based. The conditions noted are these: range given; read-out: IC50 (range over the tested cancer cell lines).
The test system of data set [4] is PC-3. In words: Cytotoxicity / cell growth inhibition, SRB assay. Particulars: Homo sapiens, PC-3, 96 h, read-out: IC50 ± SEM (nM) PC-3, SRB assay, 96 h of treatment. (In general: The SRB assay estimates cell density from bound dye.)
Data set [5] deals with A375 human melanoma xenograft. The data set is described as follows: In vivo anti-tumor activity, A375 human melanoma xenograft on SHO mice. The conditions noted are these: 25 mg/kg, 31 days. Background: A xenograft is tissue or cells of one species grown in another, often human tumour cells in immunodeficient mice.
Data set [6] deals with Porcine brain tubulin. The data set is described as follows: In vitro microtubule polymerization assay. In kind it is biochemical.
The nature of data set [7]: Pharmacokinetic study in Sprague-Dawley rats. The conditions noted are these: rat.
A short description of data set [8]: Pharmacokinetic study in ICR mice.
A short description of data set [9]: in vivo. Particulars: female, Sprague-Dawley, rat, plasma, 10 mg/kg.
Data set [10] deals with PC-3_TxR. The data set is described as follows: Cytotoxicity SRB assay, paclitaxel-resistant prostate line. The conditions noted are these: for IC50: Homo sapiens, PC3-TxR, read-out: IC50 ± SEM (nM) PC-3_TxR; for Resistance Factor: PC-3_TxR versus PC-3.
Data set [11] concerns A375. The data set is described as follows: Cytotoxicity / cell growth inhibition, SRB assay. In kind it is cell-based. Particulars: Homo sapiens, A-375, 96 h, 96 h of treatment, read-out: IC50 ± SEM (nM) A375.
The subject of data set [12] is DU 145. The data set is described as follows: Cytotoxicity / cell growth inhibition, SRB assay. The conditions noted are these: Homo sapiens, DU-145, 96 h, read-out: IC50 ± SEM (nM) DU 145, SRB assay, 96 h of treatment.
Data set [13] relates to PPC-1. In words: Cytotoxicity / cell growth inhibition, SRB assay. Particulars: Homo sapiens.
Data set [14] deals with B16-F1. In words: Cytotoxicity / cell growth inhibition, sulforhodamine B (SRB) assay. Particulars: Mus musculus, B16-F1, 96 h, 96 h of treatment, read-out: IC50 ± SEM (nM) B16-F1. It counts as cell-based.
The subject of data set [15] is LNCaP. In words: Cytotoxicity / cell growth inhibition, SRB assay. Particulars: Homo sapiens, 96 h, read-out: IC50 ± SEM (nM) LNCaP, SRB assay, 96 h of treatment.
Data set [16] deals with B16-F1 melanoma tumors. In words: In vivo anti-tumor activity, B16-F1 melanoma in C57/BL mice. Details: species or system mouse. The conditions noted are these: 60 mg/kg i.p. daily, 14 days, C57/BL mice (positive control).
In data set [17] the test system is MES-SA. In words: Growth inhibition SRB assay, parental line. The conditions noted are these: Homo sapiens, Table 6, read-out: IC50 ± SEM (nM) MES-SA. In kind it is cell-based.
The test system of data set [18] is OVCAR-8. The data set is described as follows: Cytotoxicity SRB assay, MDR model parent line. Particulars: Homo sapiens. It counts as cell-based.
For data set [19], the system named is WM-164 melanoma cells. In words: Microtubule imaging (immunofluorescence, Cellomics Cytoskeleton rearrangement kit). It counts as cell-based, human. The conditions noted are these: WM-164 cells, 18 h. The text has this: Primary antibody for tubulin and fluorescence-labeled secondary antibody were subsequently added to the cells. Cell nuclei were stained by DAPI. Whole Cell Stain Green was also applied to all cells. All images were acquired with an Olympus IX71 inverted fluorescence microscope (Olympus Corp., Tokyo, Japan) with overlays from separate images of tubulin (red), nuclei (blue), and whole cells (green).

Data set [20] deals with T1, tubulin colchicine binding site.
T1 construct: […]; other: SPA
In words: [3H]-colchicine competition-binding scintillation proximity assay. The conditions noted are these: SPA.

Data set [21] deals with MES-SA/DX5. The data set is described as follows: Growth inhibition SRB assay, P-gp over-expressing line. The conditions noted are these: Homo sapiens, Table 6, read-out: IC50 ± SEM (nM) MES-SA/Dx5. In kind it is cell-based.

Molecules are shown by their SMILES. Like-named read-outs stand apart in the source and are kept apart here.

On to `O=C(c1ccc(F)cc1)c1csc(-c2ccccc2)n1` [compound 12], for which the IC50 in data set [1] is more than 10000 nM.
Regarding `COc1cc(C(=O)c2csc(-c3ccc(CN)cc3)n2)cc(OC)c1OC.Cl` [2r, (2-(4-(Aminomethyl)phenyl)thiazol-4-yl)(3,4,5-trimethoxyphenyl)methanone hydrochloride], in data set [2], the “increase of solubility (fold) over compound 1h” value is “over 35 fold”. In addition, the IC50 in [3] is 13 to 80 nM; in data set [4], 80 nM.
For `O=C(c1ccc(F)cc1)c1c[nH]c(-c2ccc(Cl)cc2)n1` [12fb, (2-(4-chlorophenyl)-1H-imidazol-4-yl)(4-fluorophenyl)methanone], the “tolerability (body weight, physical activity)” value in [5] was “well tolerated”.
Broadly, the bioavailability is dose-corrected exposure relative to a reference, in per cent. A higher bioavailability goes with good availability. In the case of `COc1cc(C(=O)c2csc(Nc3ccc4[nH]ccc4c3)n2)cc(OC)c1OC` [compound 55, (2-(1H-indol-5-ylamino)thiazol-4-yl)(3,4,5-trimethoxyphenyl)methanone], the “inhibition of tubulin polymerization at 1 μM” value in data set [6] is reported as 11%. Further, the RatPK_IV5mgk_V in data set [7] (i.v. 5 mg/kg) is 1.0 Lkg. In [7] (p.o. 10 mg/kg), this molecule had a RatPK_PO10mgk_AUC of 335 µg·min/mL and a RatPK_PO10mgk_Cmax of 1052 ng/mL. In data set [8] (mouse, i.v. 10 mg/kg), this molecule yielded a MousePK_IV10mgk_Cl of 40 mLmin/kg and a MousePK_IV10mgk_V of 1.3 Lkg. The same molecule had a MousePK_Bioavailability in [8] (mouse, oral) of 34 %F. Besides, in data set [8] (p.o. 20 mg/kg versus i.v. 10 mg/kg), the “oral bioavailability, mice” value is listed as 34%. In data set [9] (oral), this molecule showed a bioavailability of 33%. In data set [9] (po), this molecule showed a bioavailability of 33%. In data set [10], the IC50 turned out to be 29 ± 1 nM and the “Resistance Factor” value is 1.2.
As for `O=C(c1ccc2[nH]ccc2c1)c1csc(-c2cc3ccccc3[nH]2)n1` [compound 21, (2-(1H-indol-2-yl)thiazol-4-yl)(1H-indol-5-yl)methanone], the IC50 in data set [11] stood at 100 nM; in [12], 116 nM; in data set [13] (PPC-1, 96 h, read-out: IC50 ± SEM (nM) PPC-1, SRB assay, 96 h of treatment), 76 nM; in [14], 110 nM; in data set [15], 103 nM; in data set [4], 87 nM.
On to `CN(C)/N=N/c1[nH]cnc1C(N)=O` [DTIC, 5-(3,3,-dimethyl-1-triazenyl)-imidazole-4-carboxamide], for which, in data set [16], the tumor volume reduction is 51%.
Regarding `CC(=O)O[C@H]1C(=O)[C@@]2(C)[C@H]([C@H](OC(=O)c3ccccc3)[C@]3(O)C[C@H](OC(=O)[C@H](O)[C@@H](NC(=O)c4ccccc4)c4ccccc4)C(C)=C1C3(C)C)[C@]1(OC(C)=O)CO[C@@H]1C[C@@H]2O` [paclitaxel], the IC50 was 2.7 nM in data set [17]; 4.7 ± 0.1 nM in data set [18] (OVCAR-8, read-out: IC50 (nM) OVCAR-8); 4.7 ± 0.1 nM in data set [18] (OVCAR-8, read-out: IC50 ± SEM (nm) OVCAR-8); 2.3 nM in data set [13] (PPC-1, 96 h, read-out: IC50 ± SEM (nM) PPC-1); 2.3 ± 0.8 nM in [13] (PPC-1, read-out: IC50 ± SEM (nM) PPC-1); 2.3 ± 0.8 nM in [13] (PPC-1, read-out: IC50 ± SEM (nm) PPC-1). Besides, the IC50 turned out to be 6.6 nM in [21] and 97 ± 1 nM in data set [10]. For the same molecule, the “effect on microtubule arrangement” value in data set [19] is reported as “condensation of microtubules”. Also, the “competition for the tubulin colchicine binding site (in words)” value in data set [20] is given as “flat line”. Further, in data set [10], the “Resistance Factor” value is on record as 20.
